Structures can show the parent of a compound that is named as a salt.

Among the data in ChEMBL document CHEMBL1146751, “Threshold interaction energy of NRTI's (2'-deoxy 3'-substituted nucleosidic analogs of reverse transcriptase inhibitors) to undergo competitive inhibition” (Bioorg Med Chem Lett, 2004) are IC50 values, retold here.

This assay concerns MT4. Briefly: Potency against […] nucleoside reverse transcriptor was determined in MT-4 cells. In kind it is functional, cell-based. Particulars: Homo sapiens.
In general, IC50 refers to the concentration needed to halve the response being measured. Read a high IC50 as lower potency. The compound `CCOC(=O)c1cccn1S(=O)(=O)c1cc(Cl)ccc1N` returned an IC50 of 400 nM.
`Cc1ncc([N+](=O)[O-])n1CCOC(c1ccccc1)c1ccccc1` had a half-inhibitory concentration (IC50) of 50 nM.
The same measure for `Nc1[nH]cnc2ncnc1-2` [ADENINE]: 12000 nM; for `O=C1Nc2ccc(Cl)cc2[C@@](C#CC2CC2)(C(F)(F)F)O1` [EFAVIRENZ]: 40 nM; for `Cc1ccnc2c1NC(=O)c1cccnc1N2C1CC1` [NEVIRAPINE]: 600 nM.
The same measure for `S=C(NCCc1ccccn1)Nc1ccc(Br)cn1` [TROVIRDINE HYDROCHLORIDE]: 800 nM.
Regarding `Nc1ccn([C@H]2CC[C@@H](CO)O2)c(=O)n1` [ZALCITABINE], inhibition was half-maximal at 1600 nM (IC50).
The same measure for `Cc1cn([C@H]2C[C@H](N=[N+]=[N-])[C@@H](CO)O2)c(=O)[nH]c1=O` [ZIDOVUDINE]: 40 nM.
